Reference: BindingDB's records for patent US8575203 (Boehringer Ingelheim International, 2013)

Target: T1, 3-phosphoinositide-dependent protein kinase 1 (Homo sapiens, UniProt O15530)
T1 sequence (O15530 whole entry): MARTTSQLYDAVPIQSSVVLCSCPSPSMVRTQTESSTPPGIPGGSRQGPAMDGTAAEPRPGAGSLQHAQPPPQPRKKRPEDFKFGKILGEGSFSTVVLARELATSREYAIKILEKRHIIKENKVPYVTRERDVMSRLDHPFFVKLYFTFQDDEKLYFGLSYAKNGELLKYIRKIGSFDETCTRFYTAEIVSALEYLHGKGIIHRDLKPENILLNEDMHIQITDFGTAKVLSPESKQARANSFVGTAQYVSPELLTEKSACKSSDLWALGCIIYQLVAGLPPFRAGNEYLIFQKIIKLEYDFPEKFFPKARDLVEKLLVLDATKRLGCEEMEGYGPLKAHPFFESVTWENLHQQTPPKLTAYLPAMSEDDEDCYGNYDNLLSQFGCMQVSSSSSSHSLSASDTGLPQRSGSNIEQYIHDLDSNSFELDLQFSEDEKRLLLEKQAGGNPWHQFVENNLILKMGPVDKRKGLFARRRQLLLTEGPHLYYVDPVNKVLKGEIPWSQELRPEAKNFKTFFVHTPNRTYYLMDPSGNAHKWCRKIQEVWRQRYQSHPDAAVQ
Assay: Kinase Assay
Procedure: The activity of the compounds according to the invention on the kinase PDK1 which inhibits the signal transduction pathway is determined in an in vitro kinase assay with recombinantly prepared protein.

IC50: 185 nM
SMILES: CN(C)C(=O)c1cnc2ccc(C#CCNC(=O)c3cncn(Cc4ccc(F)c(F)c4)c3=O)cc2n1 [US8575203, II-70]
